Patent publication US20130157258A1, “HCV NS5B PROTEASE MUTANTS” (VERTEX PHARMACEUTICALS INCORPORATED, priority 2010, published 2013)
“Also recorded” adds a separate entry of the source.

How the values were obtained:
HCV genotype 1 = assay: Phase Ib/IIa multicenter, randomized, dose-ascending study, 3 days of dosing; format: in vivo, human
Method: VX-222 is a non-nucleoside hepatitis C virus (HCV) NS5B polymerase inhibitor with potent in vitro activity. Safety, antiviral activity, and viral sequences were assessed in a phase Ib/IIa multicenter, randomized, dose-ascending study in genotype 1, HCV-infected patients.
(§1) Treatment-naïve HCV genotype 1 patients (n=32) were randomized to receive VX-222 at doses of 250 mg BID, 500 mg BID, 750 mg BID, or 1500 mg QD for 3 days, in a treatment:placebo ratio of 6:2 (8 patients/cohort). Pegylated interferon (Peg-IFN) and ribavirin (RBV) for 48 weeks was offered to patients at the end of the study. Sequencing of NS5B was performed at baseline (Day 1), end of dosing (Day 3), and at follow-up timepoints (Days 4, 5, 10, 20, and 60). Phenotypic data (fold change in IC50 from wildtype) of substitutions selected in patients during dosing was determined using a replicon system.

[1] = test system: HCV NS5B variants (L419C/M/P/S/V, R422K, M423I/T/V, I482L/N/T, A486I/V, V494A); assay: Phenotypic analysis of substitutions selected in patients during dosing, replicon system; format: cell-based
Method: as §1

[2] = test system: HCV NS5B substitution at position 494 (V494A); assay: Phenotypic analysis in replicon system, substitution at position 494; format: cell-based
Method: as §1

[3] = test system: HCV NS5B substitution at position 423 (M423I/T/V); assay: Phenotypic analysis in replicon system, substitution at position 423; format: cell-based
Method: as §1

[4] = test system: HCV NS5B substitution at position 482 (I482L/N/T); assay: Phenotypic analysis in replicon system, substitution at position 482; format: cell-based
Method: as §1

[5] = test system: HCV NS5B substitution at position 419 (L419C/M/P/S/V); assay: Phenotypic analysis in replicon system, substitution at position 419; format: cell-based
Method: as §1

[6] = test system: HCV NS5B substitution at position 486 (A486I/V); assay: Phenotypic analysis in replicon system, substitution at position 486; format: cell-based
Method: as §1

[7] = test system: HCV NS5B substitution at position 422 (R422K); assay: Phenotypic analysis in replicon system, substitution at position 422; format: cell-based
Method: as §1

L419M HCV replicon = assay: HCV replicon cell assay, real-time PCR, L419M; format: cell-based, HCV genotype 1b
Description: (§2) All mutations were introduced into the pFKI389/NS3-3′/adapt vector (Krieger et al., J. Virol., 75, 4614-4624 (2001); Lohmann et al., J. Virol., 77, 3007-3019 (2003)) by PCR-based site-directed mutagenesis and standard recombinant DNA technologies. The pFKI389/NS3-3′/adapt vector is a “cell culture adapted HCV replicon” containing a R465G mutation within the NS5B gene, and was obtained from Reblikon GmbH, Gau-Odernheim, Germany. The “cell culture adapted replicon” was chosen instead of the wild-type replicon because the R465G mutation was found in all of the progeny RNA isolated from 9.13 replicon cells used in drug susceptibility studies to compare the fold shift in IC50s (described further below). The adaptive R465G mutation in the NS5B region was previously reported (Krieger et al., supra) and found to be very efficient in generating replicon cell colonies after RNA transfection into Huh-7 cells. […]
(§3) The 9.13 replicon cells and the stable recombinant replicon cells were seeded in a 12-well culture dish at a density of 3×10^4 cells/well in a volume of 1 mL. […] The inhibitory effect of agents against wild-type replicon cells, resistant colonies, or recombinant replicon cells was determined by monitoring the levels of HCV RNA, normalized to cellular 18S ribosomal RNA, by real time PCR using the ABI PRISM® 7700 Sequence Detection System (Applied Biosystems, Foster City, Calif., USA). […]

L419S HCV replicon = assay: HCV replicon cell assay, real-time PCR, L419S resistant colony; format: cell-based; settings: Hepatitis C virus, 96 h
Method: The 9.13 replicon cells and the stable recombinant replicon cells were seeded in a 12-well culture dish at a density of 3×10^4 cells/well in a volume of 1 mL. The cell culture media used for the assay was DMEM supplemented with 10% fetal bovine serum, 100 IU/mL of penicillin, 100 μg/mL streptomycin, non-essential amino acids, 2 mM glutamine and 10 mM HEPES. After incubating for 3-4 hours, candidate agents (drugs) were added at various concentrations for a final volume of 2 mL of the same culture media. Cells were incubated for 4 days at 37° C. with 5% CO2. Thereafter, total RNA (cellular and viral origin) was extracted using the RNeasy kit (Qiagen Inc.) according to the manufacturer's protocol. cDNA synthesis was performed using the MMLV reverse transcriptase and random hexamer primer (Invitrogen). The inhibitory effect of agents against wild-type replicon cells, resistant colonies, or recombinant replicon cells was determined by monitoring the levels of HCV RNA, normalized to cellular 18S ribosomal RNA, by real time PCR using the ABI PRISM® 7700 Sequence Detection System (Applied Biosystems, Foster City, Calif., USA). […]
(§4) Media and drugs were replaced twice a week over the course of the experiment. Three to four weeks following the initial plating, resistant clones of cells (colonies) were counted and randomly picked for culture or for direct RNA extraction. […]

M423T HCV replicon = assay: HCV replicon cell assay, real-time PCR, M423T; format: cell-based, HCV genotype 1b
Description: as §2, §3

M423V HCV replicon = assay: HCV replicon cell assay, real-time PCR, M423V; format: cell-based, HCV genotype 1b
Description: as §2, §3

M423I HCV replicon = assay: HCV replicon cell assay, real-time PCR, M423I; format: cell-based, HCV genotype 1b
Description: as §2, §3

I482L HCV replicon = assay: HCV replicon cell assay, real-time PCR, I482L; format: cell-based, HCV genotype 1b
Description: as §2, §3

A486V HCV replicon = assay: HCV replicon cell assay, real-time PCR, A486V; format: cell-based, HCV genotype 1b
Description: as §2, §3

V494A HCV replicon = assay: HCV replicon cell assay, real-time PCR, V494A; format: cell-based, HCV genotype 1b
Description: as §2, §3

[8] = test system: recombinant mutant replicons (L419M, M423V, M423T, M423I, I482L, A486V, V494A); assay: HCV replicon cell assay, real-time PCR, all seven recombinant mutant replicons; format: cell-based, HCV genotype 1b
Description: as §2, §3

[9] = test system: genotype 1b replicon cells (9.13 replicon cells); assay: Selection of drug-resistant HCV replicon colonies under G418; format: cell-based, HCV genotype 1b
Description: Drug-resistant HCV replicons were selected as previously described. (See, e.g., Amparo et al., 46th Conference on Antimicrobial Agents and Chemotherapy (ICAAC). 2006, Abstract 1273; Le Pogam et al., J. Virol., 80(12), 6146-54 (2006); Lin et al., J. Biol. Chem., 279(17), 17508-17514 (2004); Lu et al., Antimicrob. Agents Chemother., 48(6), 2260-2266 (2004); Trozzi et al., J. Virol., 77, 3669-3679 (2003)). Briefly, approximately 2.5×10^4 genotype 1a replicon cells (W11.8 replicon cells at passage 13) or genotype 1b replicon cells (9.13 replicon cells at passage greater than 100) were plated in 75 cm^2 cell culture flasks (Falcon 353136) in complete culture medium with high concentration of G418 (600 μg/mL). […]
as §4
Mutant replicons resistant to specific inhibitors were made using replicon constructs expressing the neomycin phosphotransferase gene (NPT). […] Cells containing mutant replicons with decreased sensitivity to an inhibitor give rise to colonies that can be counted, isolated, expanded and characterized.

[10] = 250-750 mg BID or 1500 mg QD for 3 days, patients
[11] = Hepatitis C virus, 96 h, 4 days, HCV RNA by real time PCR

For `CC1CCC(C(=O)N(c2cc(C#CC(C)(C)C)sc2C(=O)O)C2CCC(O)CC2)CC1` (stereo not drawn) [VX-222], which “mean HCV RNA decline” value (HCV genotype 1; 250 mg (BID), after three days of dosing, treatment-naive genotype 1 patients) is on record?
Its value is 3.1 log 10.

And the “mean HCV RNA decline” value (HCV genotype 1; 500 mg (BID), after three days of dosing, treatment-naive genotype 1 patients)?
The value was 3.4 log 10.

What about the “mean HCV RNA decline” value (HCV genotype 1; 750 mg (BID), after three days of dosing, treatment-naive genotype 1 patients) of the same molecule?
The value was 3.2 log 10.

And the “mean HCV RNA decline” value (HCV genotype 1; 1500 mg (QD), after three days of dosing, treatment-naive genotype 1 patients)?
The value was 3.4 log 10.

And the “most common reported adverse effects (AEs)” value (HCV genotype 1; [10])?
Its value is “diarrhea, headache, nausea, fatigue and fever”.

And the “severity of the majority of AEs” value (HCV genotype 1; [10])?
Its value is “mild in severity”.

What about the “mean HCV RNA decline” value (HCV genotype 1; all four dose groups) of the same molecule?
The value was “greater than 3 log 10”.

What about the “fold change in IC50 from wildtype” value ([1]; range over all variants selected in patients) of the same molecule?
The value was 6-80 fold.

What about the “fold change in IC50 from wildtype” value [2] of the same molecule?
Its value is “six”.

What about the “fold change in IC50 from wildtype” value [3] of the same molecule?
The value was “seven to ten”.

And the “fold change in IC50 from wildtype” value [4]?
Its value is about 26 fold.

And the “fold change in IC50 from wildtype” value [5]?
Its value is 20-80 fold.

And the “fold change in IC50 from wildtype” value [6]?
Its value is about 50 fold.

And the “fold change in IC50 from wildtype” value [7]?
The value was about 74 fold.

And the “IC50 Fold-Change vs Wild-Type Replicon” value (L419M HCV replicon)?
Its value is 80 fold and ≈80 fold.

And the IC50 (L419M HCV replicon; [11])?
Its IC50 is 900 nM.

And the IC50 (L419S HCV replicon)?
The IC50 was over 2000 nM.

And the “IC50 Fold-Change vs Wild-Type Replicon” value (M423T HCV replicon)?
Its value is 29 fold and ≈29 fold.

And the IC50 (M423T HCV replicon; [11])?
Its IC50 is 319 nM.

What about the “IC50 Fold-Change vs Wild-Type Replicon” value (M423V HCV replicon) of the same molecule?
The value was 10 fold and ≈10 fold.

And the IC50 (M423V HCV replicon; [11])?
The IC50 was 110 nM.

And the “IC50 Fold-Change vs Wild-Type Replicon” value (M423I HCV replicon)?
Its value is 7.1 fold and ≈7.1 fold.

And the IC50 (M423I HCV replicon; [11])?
Its IC50 is 77.2 nM.

And the “IC50 Fold-Change vs Wild-Type Replicon” value (I482L HCV replicon)?
The value was “≈26 fold”.

And the IC50 (I482L HCV replicon; [11])?
The IC50 was 290 nM.

What about the “IC50 Fold-Change vs Wild-Type Replicon” value (A486V HCV replicon) of the same molecule?
The value was 50 fold and ≈50 fold.

And the IC50 (A486V HCV replicon; [11])?
The IC50 was 843 nM.

What about the “IC50 Fold-Change vs Wild-Type Replicon” value (V494A HCV replicon) of the same molecule?
Its value is “≈5.9 fold”.

What about the IC50 (V494A HCV replicon; [11]) of the same molecule?
The IC50 was 132 nM.

And the “fold increase of IC50 vs wild-type replicon cells” value [8]?
Its value is 6- to 80 fold.

And the resistant colony formation ([9]; VX-222 concentration of about 300 fold of the IC50, G418 selection)?
Its resistant colony formation is “No colony could be readily detected”.

What about the “frequency of resistant clones” value ([9]; equivalent IC50-fold concentration of VX-222, genotype 1b vs genotype 1a replicon cell line, not side by side) of the same molecule?
Its value is “higher for the genotype 1b replicon cell line than for the genotype 1a replicon cell line”.

`NC(=O)c1ncn([C@@H]2O[C@H](CO)[C@@H](O)[C@H]2O)n1` [RBV, ribavirin] was tested. Which “sensitivity of VX-222-selected variants to the agent” value ([1]; in vitro) did it give?
The value was “did not have reduced sensitivity; also recorded: remained sensitive”.
